Data published in publication PMC7278776, “Multidrug Resistance Modulation Activity of Silybin Derivatives and Their Anti-Inflammatory Potential” (Antioxidants, 2020).
Where two headings read alike, the source gives them in different places. Marks after values point to notes of the source that are not given here.

Legend:
[1] = system: ABCG4; assay: ABCG4 mRNA expression (real-time PCR); assay type: cell-based, human; details: for ABCG4 Expression Difference / ABCG4 Treated vs. Untreated: A2780/DOX
Protocol: (§1) The A2780/DOX cell line was seeded into 5 cm Petri dishes with DMEM medium at 1 × 10^5 cell/mL. […] After 48 h of treatment, the cells were washed with PBS and harvested using the standard trypsin-EDTA procedure. The harvested cells were centrifuged (3200× g; 10 min, 4 °C). The supernatant was discarded, and the pellets were washed with 1.5 mL of cooled PBS (5400× g; 10 min, 4 °C). The washing step was repeated with 1 mL of PBS and the cells were centrifuged again (10,000× g; 3 min, 4 °C). Afterwards, the pellets were resuspended in 1 mL of Trizol (Invitrogen, Carlsbad, CA, USA) and transferred into pre-cooled RNase-free microfuge tubes. The samples were stored at −80 °C.
(§2) A Quant-iT RiboGreen RNA Assay Kit (Invitrogen) was used to determine the RNA concentration using the Infinite M200 plate reader (Tecan, Männedor, Switzerland). The cDNA was prepared from 0.5 µg of total RNA using a RevertAid First Strand Synthesis cDNA Kit (MBI Fermentas, Vilnius, Lithuania). The amplification of the ubiquitin C gene fragment was used to determine the quality of cDNA.
(§3) The experiment was performed using the ViiA7 Real-Time polymerase chain reaction (PCR) System (Life Technologies, Camarillo, CA, USA) with a 384-well block. Before quantitative real-time PCR, the master mix was prepared by mixing 2 µL of 8 × diluted cDNA, 1.75 µL of RNase free water, 1 µL of 5 × HotFIREPol Probe quantitative PCR Mix Plus (Solis Biodyne, Tartu, Estonia) and 0.25 µL of specific 20 × TaqMan Gene Expression Assay (Life Technologies), giving 5 µL of final reaction volume. Cycling parameters were: initial hold at 50 °C for 2 min and denaturation at 95 °C for 10 min, followed by 45 cycles consisting of denaturation at 95 °C for 15 s and annealing/extension at 60 °C for 1 min. After each extension phase, the fluorescence values were acquired. Duplicate samples were used for measurement and samples with a standard deviation of duplicates > 1.0 cycle threshold (Ct) were re-analyzed. The real time PCR procedure was maintained according to MIQE (Minimum information for publication of quantitative real-time PCR experiments) guidelines. The software REST 2009 (Qiagen, Hilden, Germany) served to compare relative transcript levels of genes in the cell line.

[2] = system: ABCD1; assay: ABCD1 mRNA expression (real-time PCR); assay type: cell-based, human; details: A2780/DOX
Protocol: (§4) The A2780/DOX cell line was seeded into 5 cm Petri dishes with DMEM medium at 1 × 10^5 cell/mL. After 24 h, the dishes were washed with PBS and new DMEM medium supplemented with doxorubicin (at concentration equal to IC25) and samples (10 µM) were added. After 48 h of treatment, the cells were washed with PBS and harvested using the standard trypsin-EDTA procedure. The harvested cells were centrifuged (3200× g; 10 min, 4 °C). The supernatant was discarded, and the pellets were washed with 1.5 mL of cooled PBS (5400× g; 10 min, 4 °C). The washing step was repeated with 1 mL of PBS and the cells were centrifuged again (10,000× g; 3 min, 4 °C). Afterwards, the pellets were resuspended in 1 mL of Trizol (Invitrogen, Carlsbad, CA, USA) and transferred into pre-cooled RNase-free microfuge tubes. The samples were stored at −80 °C.
as §2, §3

[3] = system: ABCF3; assay: ABCF3 mRNA expression (real-time PCR); assay type: cell-based, human; details: A2780/DOX
Protocol: as §1, §2, §3

[4] = system: ABCD2; assay: ABCD2 mRNA expression (real-time PCR); assay type: cell-based, human; details: A2780/DOX
Protocol: as §1, §2, §3

[5] = system: ABCC1 (MRP1); assay: ABCC1 mRNA expression (real-time PCR); assay type: cell-based, human
Protocol: as §4, §2, §3

[6] = ORAC (oxygen radical absorption capacity) assay; details: fluorescein/AAPH; read-out: ORAC, concentration necessary to halve the fluorescence response (IC50)
Protocol: Antioxidant capacity of samples was determined by ORAC (oxygen radical absorption capacity) and CAA (cellular antioxidant activity) assays. ORAC assay was realized by the previously described protocol. Briefly, 50 µL of the fluorescein solution (1.6 µg/mL in phosphate-buffered saline (PBS), pH 7.4) was added by a dispenser (MultiFlo Microplate Dispenser, BioTek Instrument, Winooski, VT, USA) into each well of a 96-well plate. Subsequently, 2 µL of tested compound in the concentration range 1.25–20 µM and 23 µL of PBS were added to the wells. The plate was incubated for 15 min at 37 °C and then 25 µL of AAPH (60 mg/mL) was added to each well. AAPH was replaced with PBS for the negative control. Immediately, the fluorescence was recorded by the microplate reader (SpectraMax i3 Multi-Mode Detection Platform, Molecular Devices, San Jose, CA, USA) for 2 h in 5 min steps (excitation/emission 485/535 nm).

[7] = system: ABCC10; assay: ABCC10 mRNA expression (real-time PCR); assay type: cell-based, human; details: A2780/DOX
Protocol: as §1, §2, §3

[8] = system: ABCA1; assay: ABCA1 mRNA expression (real-time PCR); assay type: cell-based, human; details: A2780/DOX
Protocol: as §4, §2, §3

[9] = system: TNF-α; assay: TNF-α release by LPS-induced macrophages (ELISA); assay type: cell-based, mouse; details: for IC50: Mus musculus
Protocol: To determine the level of inflammatory cytokine TNF-α, macrophages were pre-cultivated with the tested compounds (12.5–50 µM) for 24 h. Thereafter, the plates were washed with PBS and new MEM medium enriched with LPS (1 µg/mL) was added to the wells. After 2 h of incubation, the plates were centrifuged (1000× g; 10 min, 4 °C) and then the medium was removed and frozen to −80 °C. Prior to the detection, the samples were diluted in ELISA diluent in a 1:10 ratio. […]

[10] = 10 µM, 48 h, without doxorubicin
[11] = 10 µM combined with doxorubicin at IC25, 48 h
[12] = A2780/DOX, 10 µM combined with doxorubicin at IC25, 48 h
[13] = RAW264.7, read-out: TNF-α, concentration necessary to halve the release (IC50)
[14] = compound 12.5 µM, untreated LPS control 2954 ± 92
[15] = compound 25 µM, untreated LPS control 2954 ± 92
[16] = compound 50 µM, untreated LPS control 2954 ± 92
[17] = A2780/DOX, 10 µM, 48 h, without doxorubicin
[18] = RAW264.7, RAW 264.7, 24 h pre-cultivation, then LPS 2 h, read-out: TNF-α, concentration necessary to halve the release (IC50)

| SMILES | downregulation of ABCG4 expression [1, 10] | ABCG4 Expression Difference [1, 11] | ABCG4 Expression Difference [1, 10] | ABCG4 Treated vs. Untreated [1, 10] | ABCD1 Expression Difference [2, 11] | ABCD1 Expression Difference [2, 10] | ABCF3 Expression Difference [3, 11] | ABCF3 Expression Difference [3, 10] | ABCD2 Expression Difference [4, 11] | ABCD2 Treated vs. Untreated [4, 11] | ABCD2 Expression Difference [4, 10] | ABCC1 Expression Difference [5, 12] | IC50 [6] | ABCC10 Expression Difference [7, 11] | ABCC10 Expression Difference [7, 10] | ABCA1 Expression Difference [8, 11] | IC50 [9, 13] | TNF-α (pg/mL) [9, 14] | TNF-α (pg/mL) [9, 15] | TNF-α (pg/mL) [9, 16] | also measured |
| --- | --- | --- | --- | --- | --- | --- | --- | --- | --- | --- | --- | --- | --- | --- | --- | --- | --- | --- | --- | --- | --- |
| COc1cc([C@H]2Oc3cc(-c4oc5cc(O)cc(O)c5c(=O)c4O)ccc3O[C@@H]2CO)ccc1O [Dehydrosilybin A, 2,3-dehydrosilybin A] | 5% | 1.992 | 0.950 | DOWN | 1.435 | 1.063 | 1.096 | 1.602 | 0.698 | DOWN | 1.205 | 0.907 | 11.4 ± 1.2 µM | 1.214 | 1.200 | 4.172 | 20.7 ± 0.4 µM | 2338 ± 63 ^ab pg/mL | 777 ± 28 ^a pg/mL | 0 ± 0 ^a pg/mL | decrease of release of TNF-α ([9]; compound 25 µM, from 2954 pg/mL to 777 pg/mL): ~4 times; TNF-α ([9]; compound 25 µM, untreated LPS control 2954 ± 92, listed as dehydrosilybin A): 777 pg/mL; TNF-α (pg/mL) ([9]; compound 50 µM, untreated LPS control 2954 ± 92, listed as dehydrosilybin A): under the detection limit of the ELISA assay |
| COc1cc([C@@H]2Oc3cc([C@H]4Oc5cc(O)cc(O)c5C(=O)[C@@H]4O)ccc3O[C@H]2CO)ccc1O [Silybin B, silybin B] | – | 4.110 | 0.366 | DOWN | – | 0.348 | 1.335 | 0.328 | 0.448 | DOWN | 0.322 | – | 6.8 ± 0.3 µM | 1.349 | 0.340 | 2.415 | – | 2441 ± 68 ^b pg/mL | 2375 ± 64 ^c pg/mL | 1792 ± 63 ^e pg/mL | ABCD1 Treated vs. Untreated [2, 10]: DOWN; ABCF3 Treated vs. Untreated [3, 10]: DOWN; ABCD2 Treated vs. Untreated [4, 10]: DOWN; downregulation of ABCC1 (MRP1) expression [5, 10]: 59%; ABCC1 Expression Difference [5, 17]: 0.413; ABCC1 Treated vs. Untreated [5, 17]: DOWN; ABCC10 Treated vs. Untreated [7, 10]: DOWN; IC50 [9, 18]: 53.3 ± 0.7 µM |
| COc1cc(C2Oc3cc(-c4oc5cc(O)cc(O)c5c(=O)c4O)ccc3OC2CO)ccc1O (centres unmarked) [Dehydrosilybin AB, 2,3-dehydrosilybin] | – | 2.008 | 1.162 | – | 1.412 | – | 1.326 | 1.706 | 0.712 | DOWN | 1.199 | 1.301 | 10.1 µM | 1.323 | 1.471 | 3.122 | 26.7 ± 0.1 µM | 2617 ± 118 ^b pg/mL | 2364 ± 108 ^c pg/mL | 0 ± 0 ^a pg/mL | ABCA1 Expression Difference [8, 10]: 1.803; TNF-α (pg/mL) ([9]; compound 50 µM, untreated LPS control 2954 ± 92, listed as dehydrosilybin AB): under the detection limit of the ELISA assay |
| COc1cc([C@@H]2Oc3cc(-c4oc5cc(O)cc(O)c5c(=O)c4O)ccc3O[C@H]2CO)ccc1O [Dehydrosilybin B, 2,3-dehydrosilybin B] | 26% | 2.860 | 0.736 | DOWN | 1.784 | – | 1.963 | – | 0.733 | DOWN | 0.860 | 1.213 | 11.8 ± 0.6 µM | 1.618 | 1.107 | 4.412 | 44.2 ± 0.3 µM | 2528 ± 171 ^b pg/mL | 2774 ± 84 ^d pg/mL | 982 ± 25 ^c pg/mL | ABCD2 Treated vs. Untreated [4, 10]: DOWN |
| COc1cc([C@H]2Oc3cc([C@H]4Oc5cc(O)cc(O)c5C(=O)[C@@H]4O)ccc3O[C@@H]2CO)ccc1O [Silybin A, silybin A] | – | 4.751 | 1.185 | – | – | 1.187 | 1.570 | – | 0.426 | DOWN | 1.063 | 1.711 | 6.6 ± 0.3 µM | 1.812 | 1.260 | 2.702 | – | 2092 ± 48 ^a pg/mL | 1476 ± 39 ^b pg/mL | 415 ± 4 ^b pg/mL | IC50 [9, 18]: 29.9 ± 1.35 µM |
